Several values for one entry are separate records, joined by “and”; a condition that tells them apart may be missing. Equal entries are not always repeated.
How the values were obtained:
MtrR = target: T1, MtrR (Neisseria gonorrhoeae, UniProt P39897); test: Isothermal titration calorimetry, ligand binding to MtrR WT; settings: ITC
T1 construct: Hexa-histidine tag with TEV protease cleavage site (N, cleaved yes); made in house; host or cells: E. coli Rosetta Gami B(DE3) pLysS

MtrR D171A = target: T2, MtrR D171A (Neisseria gonorrhoeae, UniProt P39897, D171A); test: biochemical; assay type: binding
T2 construct: Hexa-histidine tag with TEV protease cleavage site (N, cleaved yes); made in house; host or cells: E. coli Rosetta Gami B(DE3) pLysS

[1] = target: T3, MtrR binding to rpoH operator (27mer) (Neisseria gonorrhoeae, UniProt P39897); test: Fluorescence polarization based DNA binding assay, rpoH operator; settings: rpoH 27mer + 125 µM steroid
T3 construct: Hexa-histidine tag with TEV protease cleavage site (N, cleaved yes); made in house; host or cells: E. coli Rosetta Gami B(DE3) pLysS
Protocol: Fluorescence polarization based-DNA binding data were collected using a Panvera Beacon 2000 fluorescence polarization system (Invitrogen) and analyzed with Prism (Graphpad Software 9, 10). Purified MtrR was buffer exchanged into “DNA” binding buffer (150 mM NaCl, 20 mM Tris-HCl pH 7.5, 2.5% glycerol, 1 mM TCEP). […] The reported oligoduplexes containing the rpoH and mtrCDE binding site differ in lengths, 27mer and 21mer, respectively[17],[21]. […] BSA and dI-dC are included as carriers and to control for nonspecific DNA binding. Samples were excited at 490 nm and polarized emissions measured at 530 nm. Controls were run with no protein (DNA ± methanol, hormonal steroids) to ensure that millipolarization values were not affected by experimental conditions alone. The binding affinity of protein for DNA was determined using the following equation: P = Pf + (Pb – Pf) [M] / (Kd + [M]) where P is the measured polarization, Pf is the polarization of free DNA, Pb is the polarization of the completely bound DNA, Kd is the equilibrium dissociation constant, and M is the concentration of protein. Pb and Kd were determined by nonlinear least-squares analysis. At least three independent experimental measurements were averaged for each reported binding constant.

gonococcal strain FA19 = test: MIC of steroidal hormones on GC agar, strain FA19; assay type: cell-based; settings: Neisseria gonorrhoeae
Protocol: To determine the minimal inhibitory concentrations (MICs) by the steroidal hormones and their effect on antimicrobial susceptibility, 5 x 10^5 CFU and 1:5 serial dilutions of gonococcal strains were spotted on GC agar plates containing different concentrations of antibiotics and/or hormones as indicated. Antimicrobial susceptibility was assessed after 24 h incubation.
Table S1. Steroidal hormones are substrates of the MtrCDE efflux pump
Progesterone Testosterone
*Minimal inhibition concentration is defined by the lowest concentration at which visible growth is […]

FA19-rpoH-lacZ = test: Gonococcal growth in liquid culture (GC broth) with hormones (Fig S7)

T1 sequence (P39897 whole entry): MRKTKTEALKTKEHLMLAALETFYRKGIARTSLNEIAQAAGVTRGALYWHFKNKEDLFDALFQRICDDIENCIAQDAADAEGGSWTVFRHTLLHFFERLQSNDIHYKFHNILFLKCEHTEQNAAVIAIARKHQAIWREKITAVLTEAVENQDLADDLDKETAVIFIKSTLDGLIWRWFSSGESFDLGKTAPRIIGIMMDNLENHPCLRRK
T3 sequence (P39897 whole entry): as above
T2 sequence (P39897 whole entry D171A): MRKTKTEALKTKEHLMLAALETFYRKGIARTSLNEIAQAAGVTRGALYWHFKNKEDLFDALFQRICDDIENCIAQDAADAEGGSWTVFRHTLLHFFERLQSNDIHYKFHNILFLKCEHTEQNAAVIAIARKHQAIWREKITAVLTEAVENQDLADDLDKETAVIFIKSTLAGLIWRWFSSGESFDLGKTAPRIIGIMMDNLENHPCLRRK

Structure (SMILES): C[C@]12CC[C@H]3[C@@H](CCC4=CC(=O)CC[C@@]43C)[C@@H]1CC[C@@H]2O [Testosterone, testosterone]
- binding stoichiometry N (ligand per MtrR) (MtrR): ~ 1
- binding stoichiometry N (ligand per MtrR) (MtrR; listed as TES): one molecule of steroid per MtrR monomer
- Kd (MtrR; equilibrium dissociation constant (Kd), MtrR WT, 25 °C, 1% MeOH): 2260 nM and ~2260 nM
- Kd (MtrR D171A): 30900 ± 24200 nM
- fluorescence polarization, MtrR titration ([1]; MtrR WT dimer 0.00 nM): 0.00 mP
- fluorescence polarization, MtrR titration ([1]; MtrR WT dimer 6.35 nM): 2.56 mP and 4.77 mP and 2.79 mP
- fluorescence polarization, MtrR titration ([1]; MtrR WT dimer 8.85 nM): 4.03 mP and 4.45 mP
- fluorescence polarization, MtrR titration ([1]; MtrR WT dimer 11.32 nM): 4.86 mP and 6.47 mP and 4.69 mP
- fluorescence polarization, MtrR titration ([1]; MtrR WT dimer 16.21 nM): 6.33 mP and 8.37 mP and 6.42 mP
- fluorescence polarization, MtrR titration ([1]; MtrR WT dimer 25.90 nM): 9.43 mP and 8.25 mP
- fluorescence polarization, MtrR titration ([1]; MtrR WT dimer 35.50 nM): 11.51 mP and 12.65 mP and 12.17 mP
- fluorescence polarization, MtrR titration ([1]; MtrR WT dimer 54.52 nM): 15.46 mP and 15.52 mP
- fluorescence polarization, MtrR titration ([1]; MtrR WT dimer 73.35 nM): 17.83 mP and 19.00 mP and 18.19 mP
- fluorescence polarization, MtrR titration ([1]; MtrR WT dimer 110.67 nM): 21.89 mP and 23.20 mP and 21.59 mP
- fluorescence polarization, MtrR titration ([1]; MtrR WT dimer 147.65 nM): 25.36 mP and 23.99 mP
- fluorescence polarization, MtrR titration ([1]; MtrR WT dimer 220.59 nM): 26.93 mP and 29.97 mP and 27.52 mP
- fluorescence polarization, MtrR titration ([1]; MtrR WT dimer 292.55 nM): 30.66 mP and 32.37 mP and 31.12 mP
- fluorescence polarization, MtrR titration ([1]; MtrR WT dimer 363.86 nM): 32.43 mP and 34.37 mP and 33.42 mP
- fluorescence polarization, MtrR titration ([1]; MtrR WT dimer 434.54 nM): 34.93 mP and 38.17 mP and 35.29 mP
- fluorescence polarization, MtrR titration ([1]; MtrR WT dimer 504.61 nM): 36.76 mP and 39.37 mP and 37.09 mP
- fluorescence polarization, MtrR titration ([1]; MtrR WT dimer 574.07 nM): 38.43 mP and 40.67 mP and 39.72 mP
- MIC (gonococcal strain FA19; FA19): 160 µg/mL
- MIC (gonococcal strain FA19; FA19, 24 h): 555 µM
- growth curve reading after BLANKING (testosterone run) (FA19-rpoH-lacZ; 0 hr, 0.1 µM): 0.013
- growth curve reading, raw replicates (testosterone run) (FA19-rpoH-lacZ; 0 hr, 0.1 µM): 0.046
- growth curve reading after BLANKING (testosterone run) (FA19-rpoH-lacZ; 0 hr, 1 µM): 0.013
- growth curve reading, raw replicates (testosterone run) (FA19-rpoH-lacZ; 0 hr, 1 µM): 0.046
- growth curve reading after BLANKING (testosterone run) (FA19-rpoH-lacZ; 0 hr, 10 µM): 0.013
- growth curve reading, raw replicates (testosterone run) (FA19-rpoH-lacZ; 0 hr, 10 µM): 0.046
- growth curve reading after BLANKING (testosterone run) (FA19-rpoH-lacZ; 0 hr, 50 µM): 0.013
- growth curve reading, raw replicates (testosterone run) (FA19-rpoH-lacZ; 0 hr, 50 µM): 0.046
- growth curve reading after BLANKING (testosterone run) (FA19-rpoH-lacZ; 0 hr, 100 µM): 0.013
- growth curve reading, raw replicates (testosterone run) (FA19-rpoH-lacZ; 0 hr, 100 µM): 0.046
- growth curve reading after BLANKING (testosterone run) (FA19-rpoH-lacZ; 2 hr, 0.1 µM): 0.048
- growth curve reading, raw replicates (testosterone run) (FA19-rpoH-lacZ; 2 hr, 0.1 µM): 0.082 and 0.080 and 0.081
- growth curve reading after BLANKING (testosterone run) (FA19-rpoH-lacZ; 2 hr, 1 µM): 0.047
- growth curve reading, raw replicates (testosterone run) (FA19-rpoH-lacZ; 2 hr, 1 µM): 0.077 and 0.081 and 0.082
- growth curve reading after BLANKING (testosterone run) (FA19-rpoH-lacZ; 2 hr, 10 µM): 0.047
- growth curve reading, raw replicates (testosterone run) (FA19-rpoH-lacZ; 2 hr, 10 µM): 0.079 and 0.083
- growth curve reading after BLANKING (testosterone run) (FA19-rpoH-lacZ; 2 hr, 50 µM): 0.049
- growth curve reading, raw replicates (testosterone run) (FA19-rpoH-lacZ; 2 hr, 50 µM): 0.083 and 0.081
- growth curve reading after BLANKING (testosterone run) (FA19-rpoH-lacZ; 2 hr, 100 µM): 0.048
- growth curve reading, raw replicates (testosterone run) (FA19-rpoH-lacZ; 2 hr, 100 µM): 0.089 and 0.075 and 0.078
- growth curve reading after BLANKING (testosterone run) (FA19-rpoH-lacZ; 3 hr, 0.1 µM): 0.071
- growth curve reading after BLANKING (testosterone run) (FA19-rpoH-lacZ; 3 hr, 1 µM): 0.076
- growth curve reading after BLANKING (testosterone run) (FA19-rpoH-lacZ; 3 hr, 10 µM): 0.073
- growth curve reading after BLANKING (testosterone run) (FA19-rpoH-lacZ; 3 hr, 50 µM): 0.076
- growth curve reading after BLANKING (testosterone run) (FA19-rpoH-lacZ; 3 hr, 100 µM): 0.077
- growth curve reading, raw replicates (testosterone run) (FA19-rpoH-lacZ; 3 hr, 100 µM): 0.116
- growth curve reading after BLANKING (testosterone run) (FA19-rpoH-lacZ; 4.03 hr, 0.1 µM): 0.095
- growth curve reading, raw replicates (testosterone run) (FA19-rpoH-lacZ; 4.03 hr, 0.1 µM): 0.117
- growth curve reading after BLANKING (testosterone run) (FA19-rpoH-lacZ; 4.03 hr, 1 µM): 0.101
- growth curve reading after BLANKING (testosterone run) (FA19-rpoH-lacZ; 4.03 hr, 10 µM): 0.099
- growth curve reading after BLANKING (testosterone run) (FA19-rpoH-lacZ; 4.03 hr, 50 µM): 0.102
- growth curve reading after BLANKING (testosterone run) (FA19-rpoH-lacZ; 4.03 hr, 100 µM): 0.108
- growth curve reading, raw replicates (testosterone run) (FA19-rpoH-lacZ; 4.03 hr, 100 µM): 0.148
- growth curve reading after BLANKING (testosterone run) (FA19-rpoH-lacZ; 5.03 hr, 0.1 µM): 0.121
- growth curve reading, raw replicates (testosterone run) (FA19-rpoH-lacZ; 5.03 hr, 0.1 µM): 0.160 and 0.163
- growth curve reading after BLANKING (testosterone run) (FA19-rpoH-lacZ; 5.03 hr, 1 µM): 0.127
- growth curve reading, raw replicates (testosterone run) (FA19-rpoH-lacZ; 5.03 hr, 1 µM): 0.163 and 0.161 and 0.157
- growth curve reading after BLANKING (testosterone run) (FA19-rpoH-lacZ; 5.03 hr, 10 µM): 0.125
- growth curve reading, raw replicates (testosterone run) (FA19-rpoH-lacZ; 5.03 hr, 10 µM): 0.164 and 0.157 and 0.153
- growth curve reading after BLANKING (testosterone run) (FA19-rpoH-lacZ; 5.03 hr, 50 µM): 0.130
- growth curve reading, raw replicates (testosterone run) (FA19-rpoH-lacZ; 5.03 hr, 50 µM): 0.161 and 0.162 and 0.165
- growth curve reading after BLANKING (testosterone run) (FA19-rpoH-lacZ; 5.03 hr, 100 µM): 0.139
- growth curve reading, raw replicates (testosterone run) (FA19-rpoH-lacZ; 5.03 hr, 100 µM): 0.174 and 0.161 and 0.181
- growth curve reading after BLANKING (testosterone run) (FA19-rpoH-lacZ; 6.03 hr, 0.1 µM): 0.152
- growth curve reading, raw replicates (testosterone run) (FA19-rpoH-lacZ; 6.03 hr, 0.1 µM): 0.171 and 0.189 and 0.195
- growth curve reading after BLANKING (testosterone run) (FA19-rpoH-lacZ; 6.03 hr, 1 µM): 0.157
- growth curve reading, raw replicates (testosterone run) (FA19-rpoH-lacZ; 6.03 hr, 1 µM): 0.195 and 0.191 and 0.185
- growth curve reading after BLANKING (testosterone run) (FA19-rpoH-lacZ; 6.03 hr, 10 µM): 0.151
- growth curve reading, raw replicates (testosterone run) (FA19-rpoH-lacZ; 6.03 hr, 10 µM): 0.192 and 0.181 and 0.179
- growth curve reading after BLANKING (testosterone run) (FA19-rpoH-lacZ; 6.03 hr, 50 µM): 0.161
- growth curve reading, raw replicates (testosterone run) (FA19-rpoH-lacZ; 6.03 hr, 50 µM): 0.192 and 0.195
- growth curve reading after BLANKING (testosterone run) (FA19-rpoH-lacZ; 6.03 hr, 100 µM): 0.177
- growth curve reading, raw replicates (testosterone run) (FA19-rpoH-lacZ; 6.03 hr, 100 µM): 0.198
- growth curve reading after BLANKING (testosterone run) (FA19-rpoH-lacZ; 7.03 hr, 0.1 µM): 0.177
- growth curve reading, raw replicates (testosterone run) (FA19-rpoH-lacZ; 7.03 hr, 0.1 µM): 0.195
- growth curve reading after BLANKING (testosterone run) (FA19-rpoH-lacZ; 7.03 hr, 1 µM): 0.182
- growth curve reading, raw replicates (testosterone run) (FA19-rpoH-lacZ; 7.03 hr, 1 µM): 0.210
- growth curve reading after BLANKING (testosterone run) (FA19-rpoH-lacZ; 7.03 hr, 10 µM): 0.178
- growth curve reading, raw replicates (testosterone run) (FA19-rpoH-lacZ; 7.03 hr, 10 µM): 0.205
- growth curve reading, raw replicates (testosterone run) (FA19-rpoH-lacZ; 7.03 hr, 100 µM): 0.250
- growth curve reading after BLANKING (testosterone run) (FA19-rpoH-lacZ; 7.3 hr, 100 µM): 0.226
- growth curve reading, raw replicates (testosterone run) (FA19-rpoH-lacZ; 7.3 hr, 100 µM): 0.266 and 0.272
- growth curve reading after BLANKING (testosterone run) (FA19-rpoH-lacZ; […], 0.1 µM): 0.028
- growth curve reading after BLANKING (testosterone run) (FA19-rpoH-lacZ; […], 1 µM): 0.027
- growth curve reading after BLANKING (testosterone run) (FA19-rpoH-lacZ; […], 10 µM): 0.026
- growth curve reading after BLANKING (testosterone run) (FA19-rpoH-lacZ; […], 50 µM): 0.026
- growth curve reading after BLANKING (testosterone run) (FA19-rpoH-lacZ; […], 100 µM): 0.025

Reference: article PMC10850145, “Hormonal steroids induce multidrug resistance and stress response genes in Neisseria gonorrhoeae by binding to MtrR” (Nature Communications, 2024)
